1 compound from patent US12071431B2, “Pyridin-sulfonamide compounds for the treatment of conditions related to interleukin 1 beta” (ALLINKY BIOPHARMA, priority 2018, dated 2024) can be followed below.

The experiment concerns the target p38 MAPK (Homo sapiens, UniProt Q16539). In words: In vitro binding of p38 MAPK, SPRi. The protocol:
Example 14—In Vitro Binding of p38 MAPK
Various concentrations of p38 MAPK dissolved in water were manually printed onto a bare gold-coated (thickness 47 nm) PlexArray Nanocapture Sensor Chip (Plexera Bioscience, Seattle, WA, US) at 40% humidity. Each concentration was printed in replicate, and each spot contained 0.2 μL of protein solution. The chip was incubated in 80% humidity at 4° C. for overnight, and rinsed with 10×PBST for 10 min, 1×PBST for 10 min, and deionized water twice for 10 min. The chip was then blocked with 5% (w/v) non-fat milk in water overnight, and washed with 10×PBST for 10 min, 1×PBST for 10 min, and deionized water twice for 10 min before being dried under a stream of nitrogen prior to use.
Surface Plasmon Resonance Imaging (SPRi) measurements were performed with PlexAray HT (Plexera Bioscience, Seattle, WA, US). Collimated light (660 nm) passes through the coupling prism, reflects off the SPR-active gold surface, and is received by the CCD camera. Buffers and samples were injected by a non-pulsatile piston pump into the 30 μL flowcell that was mounted on the coupling prism. Each measurement cycle contained four steps: washing with PBST running buffer at a constant rate of 2 μL/s to obtain a stable baseline, sample injection at 5 μL/s for binding, surface washing with PBST at 2 μL/s for 300 s, and regeneration with 0.5% (v/v) H3PO4 at 2 μL/s for 300 s. All the measurements were performed at 4° C.
The signal changes after binding and washing (in AU) are recorded as the assay value. Selected protein-grafted regions in the SPR images were analyzed, and the average reflectivity variations of the chosen areas were plotted as a function of time. Real-time binding signals were recorded and analyzed by Data Analysis Module (DAM, Plexera Bioscience, Seattle, WA, US). Kinetic analysis was performed using BIAevaluation 4.1 software (Biacore, Inc.).

Sequence of p38 MAPK (Q16539 2-360): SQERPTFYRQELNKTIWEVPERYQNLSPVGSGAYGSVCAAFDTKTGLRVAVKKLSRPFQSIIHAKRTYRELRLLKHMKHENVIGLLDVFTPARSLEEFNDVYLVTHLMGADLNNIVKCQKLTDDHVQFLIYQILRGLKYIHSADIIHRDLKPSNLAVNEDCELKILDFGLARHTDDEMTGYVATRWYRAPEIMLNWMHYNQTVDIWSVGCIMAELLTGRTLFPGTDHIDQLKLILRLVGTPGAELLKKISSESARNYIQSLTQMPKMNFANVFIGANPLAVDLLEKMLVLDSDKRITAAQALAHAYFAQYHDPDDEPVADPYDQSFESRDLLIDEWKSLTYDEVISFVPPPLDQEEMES

Consider `CCOc1ccc(Oc2cc(S(=O)(=O)N(C)C)cnc2N2CCC(Oc3ccc(Cl)cc3)CC2)cc1` [Compound 7], for which the Kd (SPRi, 4° C., p38 MAPK, read-out: equilibrium dissociation constant (KD Value)) was 11.9 nM. In addition, the kon (read-out: Ka) was determined as 20800 M⁻¹ s⁻¹. For the same compound, the koff (read-out: Kd) came to 0.000248 s⁻¹.

Usually Kd stands for a measure of binding affinity in units of concentration.
